{"source": "patent US20250074935A1", "about": "“HETERODIMER COMPOSITIONS AND METHODS FOR THE TREATMENT OF OCULAR DISORDERS” (Ripple Therapeutics Corporation, priority 2020, published 2025)", "origin": "cited, not measured here", "settings": "given once a day"}
{"smiles": "CC(C)OC(=O)CCC/C=C\\C[C@@H]1[C@@H](CC[C@@H](O)CCc2ccccc2)[C@H](O)C[C@@H]1O", "note": "[latanoprost]", "values": [{"measurement": "mean IOP lowering", "result": "about 35%"}]}
